Assay results as given in patent US8268821B2, “Methods and compositions” (priority 2003, dated 2012).
Marks after values point to notes of the source that are not given here.

Tested on: cancer-related neuropathic pain
Assay: Open label dose escalation study of flupirtine, case studies JE and RM
Conditions: flupirtine 100 mg qid; for neuropathic discriminant function score: >0 = neuropathic, day 1 baseline 0.262; for electric pain score / freezing pain score / numbness score / score for increased pain due to touch / score for increased pain due to weather changes / squeezing pain score / LEAST PAIN LAST 24 HRS: day 1 baseline 0; for PERCENTAGE PAIN RELIEF LAST 24 HOURS / WORST PAIN SCORE LAST 24 HOURS: day 1 baseline 10; for score for overly sensitive to touch / tingling pain score: day 1 baseline 20; for burning pain score / overwhelming pain score: day 1 baseline 90; for for shooting pain score / unpleasant pain score: day 1 baseline 100; for SCORE RELATIONSHIPS / SCORE MOOD / SCORE ENJOYMENT / SCORE SLEEP / SCORE WALKING / SCORE GENERAL ACTIVITY / SCORE TOTAL ACTIVITY: pain interference 1-10; for SCORE RELATIONSHIPS / SCORE NAUSEA / WHO PERFORMANCE STATUS: day 1 baseline 3; for SCORE MOOD / SCORE POOR APPETITE / SCORE UN[…] GAIT / PAIN SCORE RIGHT NOW: day 1 baseline 4; for SCORE ENJOYMENT / SCORE SLEEP: day 1 baseline 6; for SCORE WALKING: day 1 baseline 7; for SCORE GENERAL ACTIVITY / SCORE TOTAL ACTIVITY / AVERAGE PAIN LAST 24 HOURS: day 1 baseline 8; for SCORE CONSTIPATION / SCORE INDIGESTION / SCORE POOR CONCENTRATION / SCORE DROWSINESS / SCORE NAUSEA / SCORE POOR APPETITE / SCORE UN[…] GAIT: scale 1-4; for SCORE CONSTIPATION / SCORE INDIGESTION / SCORE POOR CONCENTRATION: day 1 baseline 1; for SCORE DROWSINESS: day 1 baseline 2; for LEAST PAIN LAST 24 HRS / PAIN SCORE RIGHT NOW / AVERAGE PAIN LAST 24 HOURS / WORST PAIN SCORE LAST 24 HOURS: scale to 10; for WHO PERFORMANCE STATUS: 0=fully active, 4=completely disabled

CCOC(=O)Nc1ccc(NCc2ccc(F)cc2)nc1N [flupirtine]
−1.003: neuropathic discriminant function score (RM day 5)
20: for shooting pain score (RM day 3) | overwhelming pain score (RM day 7)
0: electric pain score (RM day 2) | freezing pain score (RM day 2) | numbness score (RM day 2) | score for increased pain due to touch (RM day 2) | score for increased pain due to weather changes (RM day 2) | squeezing pain score (RM day 2) | score for overly sensitive to touch (RM day 2) | tingling pain score (RM day 2) | LEAST PAIN LAST 24 HRS (RM day 2) | electric pain score (RM day 3) | freezing pain score (RM day 3) | numbness score (RM day 3) | score for increased pain due to touch (RM day 3) | score for increased pain due to weather changes (RM day 3) | squeezing pain score (RM day 3) | score for overly sensitive to touch (RM day 3) | tingling pain score (RM day 3) | burning pain score (RM day 3) | LEAST PAIN LAST 24 HRS (RM day 3) | electric pain score (RM day 4) | freezing pain score (RM day 4) | numbness score (RM day 4) | score for increased pain due to touch (RM day 4) | score for increased pain due to weather changes (RM day 4) | squeezing pain score (RM day 4) | score for overly sensitive to touch (RM day 4) | tingling pain score (RM day 4) | burning pain score (RM day 4) | for shooting pain score (RM day 4) | LEAST PAIN LAST 24 HRS (RM day 4) | electric pain score (RM day 5) | freezing pain score (RM day 5) | numbness score (RM day 5) | score for increased pain due to touch (RM day 5) | score for increased pain due to weather changes (RM day 5) | squeezing pain score (RM day 5) | score for overly sensitive to touch (RM day 5) | tingling pain score (RM day 5) | burning pain score (RM day 5) | for shooting pain score (RM day 5) | electric pain score (RM day 6) | freezing pain score (RM day 6) | numbness score (RM day 6) | score for increased pain due to touch (RM day 6) | score for increased pain due to weather changes (RM day 6) | squeezing pain score (RM day 6) | score for overly sensitive to touch (RM day 6) | tingling pain score (RM day 6) | burning pain score (RM day 6) | for shooting pain score (RM day 6) | electric pain score (RM day 7) | freezing pain score (RM day 7) | numbness score (RM day 7) | score for increased pain due to touch (RM day 7) | score for increased pain due to weather changes (RM day 7) | squeezing pain score (RM day 7) | score for overly sensitive to touch (RM day 7) | tingling pain score (RM day 7) | burning pain score (RM day 7) | for shooting pain score (RM day 7) | LEAST PAIN LAST 24 HRS (RM day 7) | electric pain score (RM day 8) | freezing pain score (RM day 8) | numbness score (RM day 8) | score for increased pain due to touch (RM day 8) | score for increased pain due to weather changes (RM day 8) | squeezing pain score (RM day 8)
75: unpleasant pain score (RM day 3)
−1.168: neuropathic discriminant function score (RM day 6) | neuropathic discriminant function score (RM day 7)
1*: SCORE SLEEP (RM day 8) | SCORE DROWSINESS (RM day 8)
40: overwhelming pain score (RM day 6)
4: SCORE MOOD (RM day 2) | SCORE ENJOYMENT (RM day 2) | SCORE UN[…] GAIT (RM day 2) | SCORE MOOD (RM day 3) | SCORE ENJOYMENT (RM day 3) | SCORE UN[…] GAIT (RM day 3) | SCORE UN[…] GAIT (RM day 4) | SCORE UN[…] GAIT (RM day 5) | SCORE MOOD (RM day 6) | SCORE SLEEP (RM day 6) | SCORE UN[…] GAIT (RM day 6) | AVERAGE PAIN LAST 24 HOURS (RM day 6) | SCORE UN[…] GAIT (RM day 7) | SCORE UN[…] GAIT (RM day 8)
−1.138: neuropathic discriminant function score (RM day 4)
25: overwhelming pain score (RM day 5)
30: overwhelming pain score (RM day 4)
1: SCORE CONSTIPATION (RM day 2) | SCORE INDIGESTION (RM day 2) | SCORE NAUSEA (RM day 2) | SCORE SLEEP (RM day 3) | SCORE CONSTIPATION (RM day 3) | SCORE INDIGESTION (RM day 3) | SCORE POOR CONCENTRATION (RM day 3) | SCORE NAUSEA (RM day 3) | SCORE POOR APPETITE (RM day 3) | SCORE INDIGESTION (RM day 4) | SCORE POOR CONCENTRATION (RM day 4) | SCORE DROWSINESS (RM day 4) | SCORE POOR APPETITE (RM day 4) | SCORE INDIGESTION (RM day 5) | SCORE DROWSINESS (RM day 5) | SCORE NAUSEA (RM day 5) | SCORE INDIGESTION (RM day 6) | SCORE DROWSINESS (RM day 6) | SCORE INDIGESTION (RM day 7) | SCORE DROWSINESS (RM day 7) | SCORE INDIGESTION (RM day 8) | LEAST PAIN LAST 24 HRS (RM day 8)
3: SCORE RELATIONSHIPS (RM day 2) | SCORE POOR CONCENTRATION (RM day 2) | SCORE DROWSINESS (RM day 2) | SCORE POOR APPETITE (RM day 2) | WHO PERFORMANCE STATUS (RM day 3) | SCORE RELATIONSHIPS (RM day 3) | WHO PERFORMANCE STATUS (RM day 4) | SCORE RELATIONSHIPS (RM day 4) | SCORE ENJOYMENT (RM day 4) | SCORE CONSTIPATION (RM day 4) | WHO PERFORMANCE STATUS (RM day 5) | SCORE RELATIONSHIPS (RM day 5) | SCORE MOOD (RM day 5) | WHO PERFORMANCE STATUS (RM day 6) | SCORE RELATIONSHIPS (RM day 6) | WHO PERFORMANCE STATUS (RM day 7) | SCORE RELATIONSHIPS (RM day 7) | SCORE POOR APPETITE (RM day 7) | AVERAGE PAIN LAST 24 HOURS (RM day 7) | WHO PERFORMANCE STATUS (RM day 8) | SCORE RELATIONSHIPS (RM day 8) | SCORE CONSTIPATION (RM day 8) | SCORE NAUSEA (RM day 8)
−1.008: neuropathic discriminant function score (RM day 3)
5: AVERAGE PAIN LAST 24 HOURS (RM day 2) | SCORE GENERAL ACTIVITY (RM day 3) | SCORE TOTAL ACTIVITY (RM day 3) | SCORE WALKING (RM day 4) | SCORE GENERAL ACTIVITY (RM day 4) | SCORE TOTAL ACTIVITY (RM day 4) | SCORE WALKING (RM day 5) | PAIN SCORE RIGHT NOW (RM day 5) | SCORE GENERAL ACTIVITY (RM day 7) | SCORE TOTAL ACTIVITY (RM day 7) | PAIN SCORE RIGHT NOW (RM day 7) | WORST PAIN SCORE LAST 24 HOURS (RM day 7)
5*: SCORE GENERAL ACTIVITY (RM day 8) | SCORE TOTAL ACTIVITY (RM day 8)
75%: PERCENTAGE PAIN RELIEF LAST 24 HOURS (RM day 4) | PERCENTAGE PAIN RELIEF LAST 24 HOURS (RM day 7)
65%: PERCENTAGE PAIN RELIEF LAST 24 HOURS (RM day 5)
6: SCORE SLEEP (RM day 2) | SCORE WALKING (RM day 2) | SCORE GENERAL ACTIVITY (RM day 2) | SCORE TOTAL ACTIVITY (RM day 2) | PAIN SCORE RIGHT NOW (RM day 2) | SCORE WALKING (RM day 3) | SCORE ENJOYMENT (RM day 5) | SCORE SLEEP (RM day 5) | SCORE GENERAL ACTIVITY (RM day 5) | SCORE TOTAL ACTIVITY (RM day 5) | SCORE ENJOYMENT (RM day 6) | SCORE WALKING (RM day 6) | SCORE GENERAL ACTIVITY (RM day 6) | SCORE TOTAL ACTIVITY (RM day 6) | PAIN SCORE RIGHT NOW (RM day 6) | SCORE MOOD (RM day 7) | SCORE ENJOYMENT (RM day 7) | SCORE SLEEP (RM day 7) | SCORE WALKING (RM day 7)
4*: SCORE MOOD (RM day 8) | SCORE ENJOYMENT (RM day 8)
9: WORST PAIN SCORE LAST 24 HOURS (RM day 5)
20*: overwhelming pain score (RM day 8)
80: for shooting pain score (RM day 2) | unpleasant pain score (RM day 5)
6*: SCORE WALKING (RM day 8)
0*: score for overly sensitive to touch (RM day 8) | tingling pain score (RM day 8) | burning pain score (RM day 8) | for shooting pain score (RM day 8)
45*: unpleasant pain score (RM day 8)
50%: PERCENTAGE PAIN RELIEF LAST 24 HOURS (RM day 6)
70: burning pain score (RM day 2) | overwhelming pain score (RM day 2)
15%: PERCENTAGE PAIN RELIEF LAST 24 HOURS (RM day 2) | PERCENTAGE PAIN RELIEF LAST 24 HOURS (RM day 3)
50: overwhelming pain score (RM day 3) | unpleasant pain score (RM day 7)
8: WORST PAIN SCORE LAST 24 HOURS (RM day 2) | PAIN SCORE RIGHT NOW (RM day 3) | AVERAGE PAIN LAST 24 HOURS (RM day 3) | WORST PAIN SCORE LAST 24 HOURS (RM day 3) | AVERAGE PAIN LAST 24 HOURS (RM day 4) | WORST PAIN SCORE LAST 24 HOURS (RM day 4) | AVERAGE PAIN LAST 24 HOURS (RM day 5)
75* %: PERCENTAGE PAIN RELIEF LAST 24 HOURS (RM day 8)
60: unpleasant pain score (RM day 4) | unpleasant pain score (RM day 6)
95: unpleasant pain score (RM day 2)
7: WORST PAIN SCORE LAST 24 HOURS (RM day 6) | PAIN SCORE RIGHT NOW (RM day 8)
2: SCORE DROWSINESS (RM day 3) | SCORE MOOD (RM day 4) | SCORE SLEEP (RM day 4) | SCORE NAUSEA (RM day 4) | SCORE CONSTIPATION (RM day 5) | SCORE POOR CONCENTRATION (RM day 5) | SCORE POOR APPETITE (RM day 5) | LEAST PAIN LAST 24 HRS (RM day 5) | SCORE CONSTIPATION (RM day 6) | SCORE POOR CONCENTRATION (RM day 6) | SCORE NAUSEA (RM day 6) | SCORE POOR APPETITE (RM day 6) | LEAST PAIN LAST 24 HRS (RM day 6) | SCORE CONSTIPATION (RM day 7) | SCORE POOR CONCENTRATION (RM day 7) | SCORE NAUSEA (RM day 7) | SCORE POOR CONCENTRATION (RM day 8)
2.5: PAIN SCORE RIGHT NOW (RM day 4)
−0.228: neuropathic discriminant function score (RM day 2)
